Results on three compounds are retold here after US20260209211A1, “CYCLIN K DEGRADER AND USE THEREOF” (ADLAI NORTYE BIOPHARMA CO., LTD., priority 2022, published 2026).

Common to all, as to format: cell-based
Assay [1] deals with NCI-N87 (Human Gastric Cancer Cell). Put plainly: Bioactivity detection of NCI-N87 cell growth inhibition (CellTiter-Glo). The conditions noted are these: NCI-N87 cells, 72 hours, highest concentration 10 μM, read-out: N87 CTG IC50. As to the method:
This detection method is used to evaluate the biological activity of the compounds described in this disclosure at the cellular level.
(§1) NCI-N87 cells (purchased from the Chinese Academy of Sciences) were harvested, resuspended in complete medium and adjusted to a cell density of 0.1×10^6 cells per ml. The cell suspension was added to a 96-well plate at a volume of 100 μL per well and cultured overnight in a 37° C., 5% CO2 incubator. Prepare the test compound and add it to the cell plate so that the highest concentration of the compound is 10 μM. Set 8 concentration points according to 3-fold dilution. At the same time, 100% inhibition control wells were set, that is, wells with no cells but only an equal volume of complete culture medium; and 0% inhibition control wells, that is, wells with cells added with 0.1% DMSO. The cell plate was cultured at 37° C. and 5% CO2 for 72 hours. Remove the cell culture plate and add 25 μl CellTiter-Glo Luminescent Cell Viability Reagent (promega cat #G7573) to each well. Incubate in the dark for 10 minutes and then transfer 100 μL to a white plate and use Molecular Devices SpectraMax i3 to detect chemiluminescence. The inhibition rate was calculated using the following formula for data processing: compound inhibition rate=(0% inhibition control well signal−compound treatment well signal)/(0% inhibition control well signal−100% inhibition control well signal)*10000. The calculated data were fitted with four parameters using GraphPad Prism software and the corresponding IC50 was calculated.

The target of a further assay is T1, Cyclin K (CCNK) (Homo sapiens, UniProt O75909+Q9NYV4).
T1 construct: host or cells: HEK293
T1 sequence (O75909 whole entry): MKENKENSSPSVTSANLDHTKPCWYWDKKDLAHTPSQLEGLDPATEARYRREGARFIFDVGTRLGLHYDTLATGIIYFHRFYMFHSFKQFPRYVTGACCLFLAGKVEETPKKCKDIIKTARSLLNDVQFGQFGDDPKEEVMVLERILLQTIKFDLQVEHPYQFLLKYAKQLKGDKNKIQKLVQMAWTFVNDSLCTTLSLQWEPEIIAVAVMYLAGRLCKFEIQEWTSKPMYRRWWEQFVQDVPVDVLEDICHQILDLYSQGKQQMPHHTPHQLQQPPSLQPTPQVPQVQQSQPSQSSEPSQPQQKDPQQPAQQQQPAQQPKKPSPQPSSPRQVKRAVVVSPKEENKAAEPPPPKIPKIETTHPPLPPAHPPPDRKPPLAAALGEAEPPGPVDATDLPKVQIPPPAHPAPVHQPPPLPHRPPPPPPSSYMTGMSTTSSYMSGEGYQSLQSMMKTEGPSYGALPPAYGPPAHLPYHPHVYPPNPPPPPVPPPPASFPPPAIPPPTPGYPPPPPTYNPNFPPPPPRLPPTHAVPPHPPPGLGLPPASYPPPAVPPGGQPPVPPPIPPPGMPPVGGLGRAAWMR
T1 sequence (Q9NYV4 whole entry): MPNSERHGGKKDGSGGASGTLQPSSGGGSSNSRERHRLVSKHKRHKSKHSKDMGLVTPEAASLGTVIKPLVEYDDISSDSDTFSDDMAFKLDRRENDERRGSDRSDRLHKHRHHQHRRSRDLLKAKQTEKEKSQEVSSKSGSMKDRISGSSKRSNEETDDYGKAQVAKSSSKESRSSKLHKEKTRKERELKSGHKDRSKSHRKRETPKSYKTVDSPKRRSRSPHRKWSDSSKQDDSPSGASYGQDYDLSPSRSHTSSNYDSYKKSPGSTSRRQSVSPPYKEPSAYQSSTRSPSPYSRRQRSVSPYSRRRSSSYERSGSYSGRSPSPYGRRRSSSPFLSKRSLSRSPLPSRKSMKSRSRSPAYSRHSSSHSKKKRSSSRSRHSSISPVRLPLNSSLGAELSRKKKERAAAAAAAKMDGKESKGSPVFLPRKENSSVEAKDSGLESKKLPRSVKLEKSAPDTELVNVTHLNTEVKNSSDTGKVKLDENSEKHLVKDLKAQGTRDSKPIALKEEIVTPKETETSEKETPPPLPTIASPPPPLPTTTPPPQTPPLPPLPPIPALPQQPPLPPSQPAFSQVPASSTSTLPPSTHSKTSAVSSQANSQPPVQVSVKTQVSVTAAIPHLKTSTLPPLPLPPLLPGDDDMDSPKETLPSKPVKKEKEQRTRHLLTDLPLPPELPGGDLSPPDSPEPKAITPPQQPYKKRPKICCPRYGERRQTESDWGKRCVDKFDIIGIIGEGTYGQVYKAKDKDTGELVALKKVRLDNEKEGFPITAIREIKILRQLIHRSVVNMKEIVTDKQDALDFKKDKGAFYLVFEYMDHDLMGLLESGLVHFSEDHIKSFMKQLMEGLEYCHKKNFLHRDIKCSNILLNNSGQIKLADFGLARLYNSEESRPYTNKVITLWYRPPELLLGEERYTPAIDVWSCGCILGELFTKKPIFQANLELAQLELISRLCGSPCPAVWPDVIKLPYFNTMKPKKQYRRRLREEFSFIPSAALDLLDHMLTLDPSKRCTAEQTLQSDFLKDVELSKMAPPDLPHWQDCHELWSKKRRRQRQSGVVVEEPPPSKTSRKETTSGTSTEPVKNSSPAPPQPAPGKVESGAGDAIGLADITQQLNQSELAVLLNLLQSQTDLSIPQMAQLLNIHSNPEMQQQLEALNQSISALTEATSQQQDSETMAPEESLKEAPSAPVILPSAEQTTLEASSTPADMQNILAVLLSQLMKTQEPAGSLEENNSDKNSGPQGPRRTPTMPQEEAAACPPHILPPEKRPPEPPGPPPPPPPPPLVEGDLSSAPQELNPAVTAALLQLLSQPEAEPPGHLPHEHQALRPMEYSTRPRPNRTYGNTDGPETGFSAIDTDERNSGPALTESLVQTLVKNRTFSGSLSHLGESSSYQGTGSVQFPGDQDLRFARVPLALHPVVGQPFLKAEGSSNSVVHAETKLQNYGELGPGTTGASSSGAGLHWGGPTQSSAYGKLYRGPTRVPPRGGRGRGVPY
Put plainly: Western blot analysis of Cyclin K (CCNK) degradation in HEK293 cells. The conditions noted are these: 6 h, different concentrations, compared with the control (FIG. 1). As to the method: HEK293 cells (ATCC, cat #CRL-1573) were harvested and the cell density was adjusted to 1×10^6 cells per ml. 1 ml of cell suspension was plated into each well of a 6-well plate and cultured overnight. The compound stock solution was taken and diluted with DMSO to the appropriate concentration. The diluted compounds were added to the cell wells at a ratio of 1:1000 using culture medium to ensure that the DMSO concentration in each well was 0.1%. Negative control wells were also set up, which contained complete medium containing 0.1% DMSO. After treatment with the compounds at the concentrations indicated in the figures and at different times, total cell protein was extracted using RIPA cell lysis buffer (Beyotime, cat #P0013B) containing PMSF. After protein quantification using the BCA protein quantification kit (Thermo Fisher, cat #A53225), each sample was loaded with 40 μg for subsequent SDS-PAGE and western blot experiments. The specific conditions are as follows: after running the gel at a constant voltage of 120 V for 90 minutes, transfer the membrane at a constant current of 320 mA for 60 minutes. Incubate the antibodies according to the recommended dilution ratio and incubation time. The antibody information used in the experiment is as follows: Anti-GAPDH antibody (abcam, cat #ab9485), Anti-Cyclin K antibody (abcam, cat #ab85854), Goat anti-Rabbit IgG (H+L) Cross-Adsorbed Secondary Antibody, HRP (invitrogen, cat #G-21234). ECL luminescent solution (Thermo Fisher, cat #32209) was used for color development. The final results were analyzed using a gel imaging system.
According to the above detection method, some compounds described in the present disclosure were evaluated.

Assay [2] concerns HGC27 (Human Gastric Cancer Cell). Put plainly: Bioactivity assay for HGC27 cell growth inhibition (CellTiter-Glo). The conditions noted are these: HGC-27, HGC27 cells, 24 hours, CellTiter-Glo, highest concentration 10 μM, read-out: HGC27 CTG IC50. The procedure: This detection method is used to evaluate the biological activity of the compounds of the present disclosure at the cellular level.
as §1, with “HGC27” for “NCI-N87”, “0.2×10^6” for “0.1×10^6”, “24” for “72”, “CellTiter-Glo®” for “CellTiter-Glo”, “signal)*100%.” for “signal)*10000.”

For orientation: IC50 means the midpoint of a concentration-inhibition curve. Regarding `C[C@@H](O)[C@@H](C)Oc1nc(NCc2ccc3c(c2)[nH]c2c(CO)ccnc23)ncc1C(F)(F)F` [Compound 12], the IC50 in assay [1] was found to be 7.5 nM; in assay [2] it was 25 nM. The “degradation of Cyclin K (western blot)” value on Cyclin K (CCNK) is on record as “significantly induce the degradation of Cyclin K”.
Taken in the same sequence, the figures for `C[C@@H](O)[C@@H](C)Nc1nc(NCc2ccc3c(c2)[nH]c2c(CO)ccnc23)ncc1C(F)(F)F` [Compound 18] were under 1 nM, 8 nM and “significantly induce the degradation of Cyclin K”.
Consider `CC[C@@H](Nc1nc(NCc2ccc3c(c2)[nH]c2c(CO)ccnc23)ncc1C(F)(F)F)C(N)=O` [Compound 17], for which the IC50 was determined as 3.1 nM in assay [1] and 68 nM in assay [2]. For the same compound, the “degradation of Cyclin K (western blot)” value on Cyclin K (CCNK) is on record as “significantly induce the degradation of Cyclin K”.
